Patent EP0164635A2, “Imidazothiazolemethylene-acetohydrazide derivatives, preparation thereof and pharmaceutical composition having diuretic activity” (MEDIOLANUM FARMACEUTICI s.r.l., priority 1984, dated 1985)
Several values for one entry are separate records, joined by “and”; a condition that tells them apart may be missing. Identical values can stand only once.

Assays:
[1] = test system: rats; assay: Diuretic activity: urinary sodium excretion over 6 hours after oral administration; assay type: in vivo, rat; details: read-out: Diuretic effect %; for response vs control in vivo at 5 mg/kg: dose 5 mg/kg oral; for response vs control in vivo at 20 mg/kg: dose 20 mg/kg oral
Experimental: The first series of tests was carried out to rats orally administered with distilled water (25 ml/kg) containing the product under test, previously suspended in Tween 80 (1% v/v with respect to water). Urina of the 6 hours following the treatment was collected in order to measure the sodium concentration, by means of atomic absorption. The ratio of the meq/100 g of body weight of the treated animals to the corresponding ratio of the meq/100 g of body weight of the control animals (treated with the sole vehicle) was calculated, in order to determine the dose of the test compound doubling or trebling or anyway increasing the sodium excretion.

[2] = in vivo; details: rat
[3] = test system: rat; assay: Excreted urinary volumes after oral administration, with a second water load after 0-3 h; assay type: in vivo
Experimental: (§1) The compounds were administered by the oral route, under the same conditions as described in the previous test, but the animals, after the O-3 hours interval, were treated with further 25 ml/kg of distilled water, by intubation.

[4] = test system: rat; assay: Excreted urinary electrolytes after oral administration, with a second water load after 0-3 h; assay type: in vivo
Experimental: as §1

[5] = rat, sodium urinary excretion in 6 h vs controls (control = 100)

## Cc1ccc(-c2nc3sccn3c2C=NNC(=O)CN(C)C)cc1 [Example 5]
[1]; [5]
  response vs control in vivo at 5 mg/kg: 130%
[2]; ip
  LD50: > 3000 mg/kg
[2]; po
  LD50: > 3000 mg/kg

## CN(C)CC(=O)NN=Cc1c(-c2ccc(Cl)cc2)nc2sccn12 [Example 4]
[1]; [5]
  response vs control in vivo at 20 mg/kg: 170%
[2]; ip
  LD50: > 1000 mg/kg
[2]; po
  LD50: > 1000 mg/kg

## CN(C)CC(=O)NN=Cc1c(-c2ccc(Cl)cc2)nc2n1CCS2 [Example 11]
[1]; [5]
  response vs control in vivo at 20 mg/kg: 230%
[2]; ip
  LD50: ~600 mg/kg
[2]; po
  LD50: ~800 mg/kg

## NS(=O)(=O)c1cc2c(cc1C(F)(F)F)NCNS2(=O)=O [Hydroflumethia-zide, hydroflumethiazide, reference compound]
[1]; [5]
  response vs control in vivo at 5 mg/kg: 260%
[2]; iv
  LD50: 750 mg/kg

## Cc1nc2sccn2c1C=NNC(=O)CN(C)C [Example 2]
[2]; ip
  LD50: ~600 mg/kg
[2]; po
  LD50: ~1500 mg/kg

## CC(=O)S[C@@H]1CC2=CC(=O)CC[C@]2(C)[C@H]2CC[C@@]3(C)[C@@H](CC[C@@]34CCC(=O)O4)[C@H]12 [Spironolactone, spironolactone, reference compound]
[1]; [5]
  response vs control in vivo at 20 mg/kg: 360%

## NS(=O)(=O)c1cc(C(=O)O)c(NCc2ccco2)cc1Cl [Furosemide, furosemide, reference compound]
[1]; dose 10 mg/kg oral, rat, sodium urinary excretion in 6 h vs controls (control = 100)
  response vs control in vivo at 10 mg/kg: 490%
[3]; 10 mg/kg, 0-3 h
  EXCRETED URINARY VOLUMES WITH RESPECT TO BODY WEIGHT: 36.5 mL/kg and 26.5 mL/kg
[3]; 10 mg/kg, 0-6 h
  EXCRETED URINARY VOLUMES WITH RESPECT TO BODY WEIGHT: 45.1 mL/kg and 47.2 mL/kg
[3]; 10 mg/kg, 3-6 h
  EXCRETED URINARY VOLUMES WITH RESPECT TO BODY WEIGHT: 10.7 mL/kg and 18.6 mL/kg
[4]; 10 mg/kg, 0-3 h
  EXCRETED URINARY ELECTROLYTES WITH RESPECT TO BODY WEIGHT, K^+: 0.87 mEq/kg and 1.02 mEq/kg
  EXCRETED URINARY ELECTROLYTES WITH RESPECT TO BODY WEIGHT, Na^+: 1.30 mEq/kg and 1.82 mEq/kg
[4]; 10 mg/kg, 0-6 h
  EXCRETED URINARY ELECTROLYTES WITH RESPECT TO BODY WEIGHT, K^+: 1.15 mEq/kg and 1.11 mEq/kg
  EXCRETED URINARY ELECTROLYTES WITH RESPECT TO BODY WEIGHT, Na^+: 1.38 mEq/kg and 1.85 mEq/kg
[4]; 10 mg/kg, 3-6 h
  EXCRETED URINARY ELECTROLYTES WITH RESPECT TO BODY WEIGHT, K^+: 0.24 mEq/kg and 0.13 mEq/kg

## Cc1cn2c(C=NNC(=O)CN(C)C)c(-c3ccccc3)nc2s1 [Example 8, N,N-Dimethylaminoacetyl-[[2-methyl-6-phenyl-imida-zo[2,1-b]thiazole-5-yl]methylene]hydrazide]
[1]; dose 1 mg/kg oral, rat, sodium urinary excretion in 6 h vs controls (control = 100)
  response vs control in vivo at 1 mg/kg: 300%
[2]; ip
  LD50: > 3000 mg/kg
[2]; po
  LD50: > 3000 mg/kg
[3]; 2.5 mg/kg, 0-3 h
  EXCRETED URINARY VOLUMES WITH RESPECT TO BODY WEIGHT: 26.5 mL/kg
[3]; 2.5 mg/kg, 0-6 h
  EXCRETED URINARY VOLUMES WITH RESPECT TO BODY WEIGHT: 43.2 mL/kg
[3]; 2.5 mg/kg, 3-6 h
  EXCRETED URINARY VOLUMES WITH RESPECT TO BODY WEIGHT: 16.7 mL/kg
[3]; 10 mg/kg, 0-3 h
  EXCRETED URINARY VOLUMES WITH RESPECT TO BODY WEIGHT: 34.5 mL/kg
[3]; 10 mg/kg, 0-6 h
  EXCRETED URINARY VOLUMES WITH RESPECT TO BODY WEIGHT: 50.9 mL/kg
[3]; 10 mg/kg, 3-6 h
  EXCRETED URINARY VOLUMES WITH RESPECT TO BODY WEIGHT: 16.4 mL/kg
[4]; 10 mg/kg, 0-3 h
  EXCRETED URINARY ELECTROLYTES WITH RESPECT TO BODY WEIGHT, K^+: 0.66 mEq/kg
  EXCRETED URINARY ELECTROLYTES WITH RESPECT TO BODY WEIGHT, Na^+: 2.24 mEq/kg
[4]; 10 mg/kg, 0-6 h
  EXCRETED URINARY ELECTROLYTES WITH RESPECT TO BODY WEIGHT, K^+: 0.99 mEq/kg
  EXCRETED URINARY ELECTROLYTES WITH RESPECT TO BODY WEIGHT, Na^+: 2.39 mEq/kg
[4]; 10 mg/kg, 3-6 h
  EXCRETED URINARY ELECTROLYTES WITH RESPECT TO BODY WEIGHT, K^+: 0.33 mEq/kg
  EXCRETED URINARY ELECTROLYTES WITH RESPECT TO BODY WEIGHT, Na^+: 0.15 mEq/kg
[4]; head prints 10 mg/kg, 0-3 h
  EXCRETED URINARY ELECTROLYTES WITH RESPECT TO BODY WEIGHT, K^+: 0.48 mEq/kg
  EXCRETED URINARY ELECTROLYTES WITH RESPECT TO BODY WEIGHT, Na^+: 1.32 mEq/kg
[4]; head prints 10 mg/kg, 0-6 h
  EXCRETED URINARY ELECTROLYTES WITH RESPECT TO BODY WEIGHT, K^+: 0.83 mEq/kg
  EXCRETED URINARY ELECTROLYTES WITH RESPECT TO BODY WEIGHT, Na^+: 1.38 mEq/kg
[4]; head prints 10 mg/kg, 3-6 h
  EXCRETED URINARY ELECTROLYTES WITH RESPECT TO BODY WEIGHT, K^+: 0.35 mEq/kg
  EXCRETED URINARY ELECTROLYTES WITH RESPECT TO BODY WEIGHT, Na^+: 0.056 mEq/kg

## CC(=O)Nc1nnc(S(N)(=O)=O)s1 [Acetazolamide, acetazolamide, reference compound]
[1]; Rattus norvegicus, po, 6 h
  response vs control in vivo at 2.5 mg/kg: 200%
